How the values were obtained:
[1] = system: barnyardgrass; assay: Test A preemergence; assay type: in vivo, Echinochloa crus-galli
How it was run: (§1)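 Visual injury scored 0–100 (100 = complete control) against untreated controls about 10 days after treatment in a greenhouse. Test chemicals, formulated with surfactant in non-phytotoxic solvent, were sprayed on soil preemergence or on 2-10 cm, one- to two-leaf plants postemergence.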

[2] = system: large (Lg) crabgrass; assay: Test A preemergence; assay type: in vivo, Digitaria sanguinalis
How it was run: as §1

[3] = system: giant foxtail; assay: Test A preemergence; assay type: in vivo, Setaria faberii
How it was run: as §1

[4] = system: morningglory; assay: Test A preemergence; assay type: in vivo, Ipomoea spp.
How it was run: as §1

[5] = system: pigweed; assay: Test A preemergence; assay type: in vivo, Amaranthus retroflexus
How it was run: as §1

[6] = system: velvetleaf; assay: Test A preemergence; assay type: in vivo, Abutilon theophrasti
How it was run: as §1

[7] = system: wheat; assay: Test A preemergence; assay type: in vivo, Triticum aestivum
How it was run: as §1

[8] = system: corn; assay: Test A preemergence; assay type: in vivo, Zea mays
How it was run: as §1

[9] = system: barnyardgrass; assay: Test A postemergence; assay type: in vivo, Echinochloa crus-galli
How it was run: as §1

[10] = system: large (Lg) crabgrass; assay: Test A postemergence; assay type: in vivo, Digitaria sanguinalis
How it was run: as §1

[11] = system: giant foxtail; assay: Test A postemergence; assay type: in vivo, Setaria faberii
How it was run: as §1

[12] = system: morningglory; assay: Test A postemergence; assay type: in vivo, Ipomoea spp.
How it was run: as §1

[13] = system: pigweed; assay: Test A postemergence; assay type: in vivo, Amaranthus retroflexus
How it was run: as §1

[14] = system: velvetleaf; assay: Test A postemergence; assay type: in vivo, Abutilon theophrasti
How it was run: as §1

[15] = system: wheat; assay: Test A postemergence; assay type: in vivo, Triticum aestivum
How it was run: as §1

[16] = system: corn; assay: Test A postemergence; assay type: in vivo, Zea mays
How it was run: as §1

[17] = system: rice; assay: Test B flooded paddy test; assay type: in vivo, Oryza sativa; settings: Flood, 250 g ai/ha; 0 to 100 scale where 0 is no effect and 100 is complete control
How it was run: (§2)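 Flooded to 3 cm at the 2-leaf stage, pots received compound through the paddy water and were kept at that depth under greenhouse conditions. After 13–15 days, effect was rated by eye relative to controls, 0 = none and 100 = complete control.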

[18] = system: sedge, umbrella; assay: Test B flooded paddy test; assay type: in vivo, Cyperus difformis; settings: Flood, 250 g ai/ha; 0 to 100 scale where 0 is no effect and 100 is complete control
How it was run: as §2

[19] = system: Heteranthera limosa; assay: Test B flooded paddy test; assay type: in vivo; settings: Flood, 250 g ai/ha; 0 to 100 scale where 0 is no effect and 100 is complete control
How it was run: as §2

[20] = system: barnyardgrass; assay: Test B flooded paddy test; assay type: in vivo, Echinochloa crus-galli; settings: Flood, 250 g ai/ha; 0 to 100 scale where 0 is no effect and 100 is complete control
How it was run: as §2

[21] = 500 g ai/ha, 0 to 100 scale where 0 is no effect and 100 is complete control
[22] = 125 g ai/ha, 0 to 100 scale where 0 is no effect and 100 is complete control
[23] = 500 g ai/ha, 0 to 100 scale, 0 no effect, 100 complete control, approx. 10 days
[24] = 500 g ai/ha, 0 to 100 scale, 0 no effect, 100 complete control
[25] = 1000 g ai/ha, 0 to 100 scale, 0 no effect, 100 complete control, approx. 10 days
[26] = 1000 g ai/ha, 0 to 100 scale, 0 no effect, 100 complete control

## O=Cc1cccc(Oc2ncc(Br)cn2)c1-n1cc(Cl)cn1 [Compound 206]
[1]; 125 g ai/ha
  Barnyardgrass plant response rating (0 to 100 scale, 0 is no effect, 100 is complete control): 0
[1]; [21]
  Barnyardgrass plant response rating: 0
[2]; 125 g ai/ha
  Crabgrass, Large plant response rating (0 to 100 scale): 0
[2]; [21]
  Crabgrass, Large plant response rating: 0
[3]; 125 g ai/ha
  Foxtail, Giant plant response rating (0 to 100 scale): 0
[3]; [21]
  Foxtail, Giant plant response rating: 0
[4]; 125 g ai/ha
  Morningglory plant response rating (0 to 100 scale): 0
[4]; [21]
  Morningglory plant response rating: 0
[5]; 125 g ai/ha
  Pigweed plant response rating (0 to 100 scale): 0
[5]; [21]
  Pigweed plant response rating: 50
[6]; 125 g ai/ha
  Velvetleaf plant response rating (0 to 100 scale): 0
[6]; [21]
  Velvetleaf plant response rating: 0
[7]; 125 g ai/ha
  Wheat plant response rating (0 to 100 scale): 0
[7]; [21]
  Wheat plant response rating: 0
[8]; 125 g ai/ha
  Corn plant response rating (0 to 100 scale): 0
[8]; [21]
  Corn plant response rating: 0
[9]; [22]
  Barnyardgrass plant response rating: 0
[9]; [21]
  Plant response rating, Barnyardgrass: 0
[10]; [22]
  Crabgrass, Large plant response rating: 0
[10]; [21]
  Plant response rating, Crabgrass, Large: 0
[11]; [22]
  Foxtail, Giant plant response rating: 0
[11]; [21]
  Plant response rating, Foxtail, Giant: 0
[12]; [22]
  Morningglory plant response rating: 0
[12]; [21]
  Plant response rating, Morningglory: 0
[13]; [22]
  Pigweed plant response rating: 0
[13]; [21]
  Plant response rating, Pigweed: 0
[14]; [22]
  Velvetleaf plant response rating: 10
[14]; [21]
  Plant response rating, Velvetleaf: 20
[15]; [22]
  Wheat plant response rating: 0
[15]; [21]
  Plant response rating, Wheat: 0
[16]; [22]
  Corn plant response rating: 0
[16]; [21]
  Plant response rating, Corn: 0
[17]
  Plant response rating, Rice: 0
[18]
  Plant response rating, Sedge, Umbrella: 0
[19]
  Plant response rating, Ducksalad: 0
[20]
  Plant response rating, Barnyardgrass: 0

## Cc1cnc(Oc2cccc(C#N)c2-n2cc(Br)cn2)nc1 [Compound 76]
[1]; [22]
  Plant response rating, Barnyardgrass: 50
[1]; [23]
  Barnyardgrass plant response rating: 100
[2]; [22]
  Plant response rating, Crabgrass, Large: 100
[2]; [23]
  Crabgrass, Large plant response rating: 100
[3]; [22]
  Plant response rating, Foxtail, Giant: 80
[3]; [23]
  Foxtail, Giant plant response rating: 100
[4]; [22]
  Plant response rating, Morningglory: 0
[4]; [23]
  Morningglory plant response rating: 80
[5]; [22]
  Plant response rating, Pigweed: 100
[5]; [23]
  Pigweed plant response rating: 100
[6]; [22]
  Plant response rating, Velvetleaf: 90
[6]; [23]
  Velvetleaf plant response rating: 100
[7]; [22]
  Plant response rating, Wheat: 0
[7]; [23]
  Wheat plant response rating: 30
[8]; [22]
  Plant response rating, Corn: 20
[8]; [23]
  Corn plant response rating: 30
[9]; [22]
  Plant response rating, Barnyardgrass: 60
[9]; [24]
  Plant response rating, Barnyardgrass: 100
[10]; [22]
  Plant response rating, Crabgrass, Large: 70
[10]; [24]
  Plant response rating, Crabgrass, Large: 100
[11]; [22]
  Plant response rating, Foxtail, Giant: 60
[11]; [21]
  Plant response rating, Foxtail, Giant: 90
[12]; [22]
  Plant response rating, Morningglory: 60
[12]; [21]
  Plant response rating, Morningglory: 90
[13]; [22]
  Plant response rating, Pigweed: 90
[13]; [21]
  Plant response rating, Pigweed: 100
[14]; [22]
  Plant response rating, Velvetleaf: 80
[14]; [21]
  Plant response rating, Velvetleaf: 100
[15]; [22]
  Plant response rating, Wheat: 0
[15]; [21]
  Plant response rating, Wheat: 10
[16]; [22]
  Plant response rating, Corn: 10
[16]; [24]
  Plant response rating, Corn: 80
[17]
  Plant response rating, Rice: 0
[18]
  Plant response rating, Sedge, Umbrella: 75
[19]
  Plant response rating, Ducksalad: 70
[20]
  Plant response rating, Barnyardgrass: 0

## CC(=O)c1cn(-c2c(Br)cccc2Oc2ncc(Cl)cn2)nn1 [Compound 280]
[1]; [25]
  Barnyardgrass plant response rating: 100
[2]; [25]
  Crabgrass, Large plant response rating: 100
[3]; [25]
  Foxtail, Giant plant response rating: 100
[4]; [25]
  Morningglory plant response rating: 0
[5]; [25]
  Pigweed plant response rating: 100
[6]; [25]
  Velvetleaf plant response rating: 100
[7]; [25]
  Wheat plant response rating: 40
[8]; [25]
  Corn plant response rating: 50
[9]; [26]
  Plant response rating, Barnyardgrass: 90
[10]; [26]
  Plant response rating, Crabgrass, Large: 90
[11]; [26]
  Plant response rating, Foxtail, Giant: 90
[12]; [26]
  Plant response rating, Morningglory: 30
[13]; [26]
  Plant response rating, Pigweed: 100
[14]; [26]
  Plant response rating, Velvetleaf: 90
[15]; [26]
  Plant response rating, Wheat: 40
[16]; [26]
  Plant response rating, Corn: 50
[17]
  Plant response rating, Rice: 10
[18]
  Plant response rating, Sedge, Umbrella: 10
[19]
  Plant response rating, Ducksalad: 30
[20]
  Plant response rating, Barnyardgrass: 10

Reference: patent US9695155B2, “Herbicidal substituted pyrimidinyloxy benzene compounds” (E. I. DU PONT DE NEMOURS AND COMPANY, priority 2013, dated 2017)
